Measured values as given in patent US20130296347A1, “Compositions and Methods for Prophylaxis and Treatment of Addictions” (Omeros Corporation, priority 2007, published 2013).
“Also recorded” adds a separate entry of the source.

Assays:
Wistar rats = assay: Alcohol withdrawal score after six days of intermittent alcohol intoxication; assay type: in vivo, rat
Procedure: Male Wistar rats were subjected to a six days of intermittent alcohol intoxication. […] The first ethanol dose was given at the beginning of the dark phase. The other 3 daily doses were administered at intervals of 3 hours. Rats were not injected during the light phase of the light/dark cycle. […] Behavioural signs of withdrawal included: (1) presence of the ventromedial distal flexion response; (2) tail stiffness/rigidity; and (3) tremors (Schulteis et al. 1995). […] Schulteis, et al., 1995). All signs were cumulated to yield an overall withdrawal severity score.

Long Evans rats = assay: Yohimbine-induced reinstatement of nicotine seeking; assay type: in vivo, rat; details: pioglitazone all doses tested (5.0, 10.0 and 30.0 mg/kg), 12 and 1 hour before test
Procedure: Stress and anxiety are major factors in resuming nicotine use in former abstinent users. […] Reinstatement experiments and relative drug treatments were performed every third day. Between reinstatements, extinction baseline was re-established.

[1] = test system: Marchigian Sardinian alcohol-preferring (msP) rats; assay: Acute voluntary ethanol intake, alcohol access restricted to 2 hours/day; assay type: in vivo, rat
Procedure: At the beginning of the experiments, msP rats were allowed free choice between water and 10% (v/v) alcohol 24 h/day for at least 15 days. The fluids were offered in graduated drinking tubes equipped with metallic drinking spouts. The position (to the right or left) of alcohol and water drinking tubes was changed daily to avoid the development of side preference. Water and food were available ad libitum, while alcohol access was either restricted to 2 hours/day (Examples 1 and 2) or was available 24 hours/day (Examples 3 and 4). Alcohol, water and food intakes were measured.
. After acquisition of a stable baseline of ethanol intake (6-8 g/kg bw; daily), alcohol access was restricted to 2 hours a day at the beginning of the dark phase. Water and food were freely available.
[…]. Before starting the treatment, rats were trained to gavage administration procedures for three days, during which they received vehicle (distilled water).
Treatments were carried out at intervals of at least three days. […] Drinking experiments were conducted right at the beginning of the dark cycle. Alcohol, water and food intakes were monitored at 30, 60, 90 and 120 minutes after ethanol was made available.
The msP rats (n=8) were prepared for the study as described in Example 1. After acquisition of a stable baseline of ethanol intake, alcohol access was restricted to 2 hours a day at the beginning of the dark phase. Water and food were freely available. […]. The experiment was conducted using a within subject counterbalanced Latine square design where each animal received all drug doses.
These experiments were conducted at the beginning of the dark cycle and alcohol, and water and food intakes were monitored at 30, 60, 90 and 120 minutes after ethanol was made available.

CD mice = assay: Tail-flick test, morphine-induced analgesic tolerance; assay type: in vivo, mouse; details: pioglitazone alone 10 or 30 mg/kg
Procedure: All procedures were conducted in adherence to the European Community Council Directive for Care and Use of Laboratory Animals.
Mice were divided into 6 groups. Group 1 (n=8) received drug vehicles (veh/veh). […] Animals were treated twice daily (between 9:00 and 10:00 a.m. and 9:00 and 10:00 p.m.).
Morphine hydrochloride was purchased from Salars (Milano, Italy). Morphine (30 mg/kg) was dissolved in NaCl […] and was injected intraperitoneally (IP) twice a day at the indicated doses in a volume of 0.2 ml per mice. […] It was dissolved in distilled water and was administered per o.s. at the doses of 10 mg/kg and 30 mg/kg in a volume of 0.6 ml per mice.
Two different tests were used to monitor analgesic responses. The tail-flick test was performed 45 min after the morning injection of morphine, and the tail-immersion test was performed 45 min after the evening injection of morphine.
For the tail-flick test, each mouse was gently restrained in a soft tissue pocket, and the tail (1 cm from the tip) was exposed to a hot light beam. Latency for tail-flick was measured with a 6 seconds cut-off time. For the tail-immersion test, each mouse was restrained in a soft tissue pocket, and the distal half of the tail dipped into a water bath set at 52 C°. Latency for removing the tail from the hot water was measured with a 10 seconds cut-off time.

msP rats [2] = assay: Yohimbine-induced (stress) reinstatement of alcohol seeking
From the text: Stress-induced reinstatement of alcohol-seeking experimental procedures consisted of three phases: (1) training phase; (2) extinction phase; and (3) reinstatement phase, as described below.
For the training phase, after completion of the fading procedure, msP rats were trained to self-administer 10% (v/v) alcohol for 15 days in 30-min daily sessions under a FR1 schedule of reinforcement. During the infusion, a stimulus house light was turned on for 5 s (time out; TO).
For the extinction phase, after the last alcohol self-administration session, animals were subjected to 30-min extinction sessions for 15 consecutive days.
The day after the last extinction session, rats were subjected to the reinstatement test.
Animals received all drug treatments according to a counterbalance Latin square design. A 3-day interval, during which animals were subjected to extinction sessions, was allowed between drug tests.

msP rats [3] = assay: Acute voluntary ethanol intake, free choice 10% alcohol 24 hours a day; assay type: in vivo, rat
Procedure: MsP rats were first trained to drink 10% (w/v) alcohol for 24 hours a day (free choice between water and ethanol). […] Before starting the treatment, rats were trained to gavage administration procedures for three days, during which they received vehicle (distilled water). […] Drinking experiments started at the beginning of the dark cycle. Alcohol, water and food intakes were monitored at 2, 8 and 24 hours after ethanol was made available.
Before starting the treatment, rats were trained to gavage and IP administration procedures for three days. Experiment was conducted in a between subject design (n=22). […] Drinking experiments started at the beginning of the dark cycle. Alcohol, water and food intakes were monitored at 2, 8 and 24 hours after ethanol was made available.
The drinking experiments were conducted at the beginning of the dark cycle, and alcohol, water and food intakes were monitored at 2, 8 and 24 hours after ethanol was made available.
MsP rats were first trained to drink 10% (w/v) alcohol for 24 hours a day (free choice between water and ethanol). […] Rats treated with drug vehicles served as a control. Before starting the treatment, rats were trained to gavage administration for three days, during which they received drugs vehicle (distilled water). […] Drinking experiments started at the beginning of the dark cycle. Alcohol, water, and food intakes were monitored at 2, 8 and 24 hours after ethanol was made available.
(§1) MsP rats were first trained to drink 10% (w/v) alcohol for 24 hours a day (free choice between water and ethanol). […] Rats treated with drug vehicles served as a control. Before starting the treatment, rats were trained to gavage administration for three days, during which they received drugs vehicle (distilled water). […] Drinking experiments started at the beginning of the dark cycle. Alcohol, water and food intakes were monitored at 2, 8 and 24 hours after ethanol was made available.
as §1, §1, §1, §1

[4] = Young, Buckle et al. 1998; Breidert et al. 2002; cited from earlier work
[5] = pioglitazone 10 and 30 mg/kg, p<0.01
[6] = pioglitazone 30 mg/kg OS at 12 hours and 1 hour before access to ethanol

With CCc1ccc(CCOc2ccc(CC3SC(=O)NC3=O)cc2)nc1.Cl (stereo not shown) [pioglitazone] the alcohol withdrawal signs (Wistar rats; pioglitazone 10 mg/kg and 30 mg/kg, 12 hours and 1 hour before rating) was “significantly reduced”, the tail rigidity (Wistar rats; [5]) was “highly significant effect” and the tremors (Wistar rats; [5]) was “highly significant effect”. The ventromedial limb retraction (Wistar rats; [5]) was “highly significant effect”, the “rats showing seizures during withdrawal” value (Wistar rats; pioglitazone treated rats (two out of 7 vehicle animals showed convulsion)) was “none of the 12 rats” and the “yohimbine-induced reinstatement of nicotine seeking” value (Long Evans rats) was “prevented; also recorded: significantly (p<0.001) decreased”. For the same compound, the “ethanol consumption at 30, 60, or 90 minutes” value [1, 6] was “not at 30, 60, or 90 minutes”, the “ethanol consumption at 2 hours” value [1, 6] was “significantly reduced” and the “ethanol intake, overall treatment effect (ANOVA)” value ([1]; pioglitazone 10.0, 30.0 mg/kg OS) was “absence of a significant treatment effect”. The “analgesic responses (tail-flick)” value (CD mice) was “did not differ from controls”, the “yohimbine-induced reinstatement of alcohol seeking (active lever)” value (msP rats [2]; pioglitazone 10 mg/kg OS at 12 hours and 1 hour before test) was “clear trend (p=0.07) to an inhibition” and the “yohimbine-induced reinstatement of alcohol seeking (active lever)” value (msP rats [2]; pioglitazone 30 mg/kg OS at 12 hours and 1 hour before test, p<0.01) was “significant inhibition”. For the same compound, the “effect of yohimbine on reinstatement of responding, overall” value (msP rats [2]; pre-treatment with pioglitazone 10.0 and 30.0 mg/kg) was “significantly reduced; also recorded: markedly reduced”, the “ethanol intake, drug alone (post-hoc)” value (msP rats [3]; low dose given at 12 hours and 1 hour before access, pioglitazone 10 mg/kg OS, partner drugs at doses of the examples) was “did not significantly modify” and the “ethanol intake at 2 hours, drug alone” value (msP rats [3]; pioglitazone 10 mg/kg OS, topiramate 30.0 mg/kg OS, p<0.05) was “significant reduction”. The “ethanol consumption at 2 hours” value (msP rats [3]; pioglitazone 30 mg/kg OS) was “significantly reduced”, the “ethanol consumption at 8 hours” value (msP rats [3]; pioglitazone 30 mg/kg OS) was “significantly reduced” and the “ethanol consumption at 24 hours” value (msP rats [3]; pioglitazone 30 mg/kg OS) was “significantly reduced”. The “crossing of the blood brain barrier compared with rosiglitazone” value [4] was “crosses the blood brain barrier more easily”.
